The values that follow come from patent publication US8916681B2, “Compound, use and method” (Medical Research Council, priority 2007, dated 2014).

Entries after “also recorded” stand apart in the source; their conditions may differ. Non-standard residues stand in square brackets, D forms with d. Residues, ends and D or L forms follow the SMILES beside them.

In one assay the test system is GnRH neurons. Kind of assay: GnRH neuron firing, targeted extracellular recordings in brain slices. In kind it is cell-based, mouse. The conditions noted are these: for response of GnRH neuron firing to 1 nM kisspeptin-10 after pretreatment with peptide: 1, 10, 100 nM peptide. As to the method: Firing of GnRH neurons were recorded in brain slices from transgenic female mice in which GFP is genetically targeted to GnRH neurons (42). Mice were housed on a 14 h light, 10 h dark cycle, with lights off at 1630 h, and were maintained on Harlan 2916 rodent chow (Harlan) and water ad libitum. All procedures were approved by the Animal Care and Use Committee of University of Virginia and were conducted within the guidelines of the National Research Council's Guide for the Care and Use of Laboratory Animals. Adult female GnRH-GFP mice were ovariectomized under isoflurane (Abbott Laboratories) anesthesia. Postoperative analgesia was provided by a long-acting local anesthetic (0.25% bupivicaine; 7.5 μl/site; Abbott Laboratories). At the time of surgery, mice received Silastic (Dow Corning) capsules containing 0.625 μg estradiol in sesame oil. […] No more than four cells from a single animal were recorded, all in different slices.
Brain slices were prepared using previously described method (44). Briefly, all solutions were bubbled with a 95% O2/5% CO2 mixture throughout the experiments and for at least 15 min before exposure to the tissue. The brain was rapidly removed and placed in ice-cold, high-sucrose saline solution containing 250 mM sucrose, 3.5 mM KCl, 26 mM NaHCO3, 10 mM glucose, 1.25 mM Na2HPO4, 1.2 mM MgSO4, and 2.5 mM MgCl2. Coronal 300-μm brain slices were cut with a Vibratome 3000 (Technical Products, International, Inc., St. Louis, Mo.). Slices were incubated for 30 min at 30-32 C in a solution of 50% high-sucrose saline and 50% normal saline (NS) containing 135 mM NaCl, 3.5 mM KCl, 10 mM glucose, 1.3 mM Na2HPO4, 1.2 mM MgSO4, and 2.5 mM CaCl2 and then were transferred to a solution of 100% NS at room temperature and kept at least 30 min and no more than 6 h before recording.
Targeted extracellular recordings (also known as loose-patch) were used to study effects of kisspeptin-10 and peptide 234 on GnRH neuron firing activity (45). […] Although these events are not action potentials per se, they accurately reflect changes in the action potential firing rate. For simplicity, we have used the phrases firing rate, firing pattern, and/or firing activity to refer to these events.
Individual brain slices were placed in a recording chamber continuously superfused with oxygenated NS solution and kept at 29-31 C. Cells were visualized with an Olympus BX50WI upright fluorescent microscope with infrared differential interference contrast (Opelco). GnRH neurons were identified by brief illumination at 470 nm to visualize the GFP signal. Patch borosilicate pipettes (World Precision Instruments), which ranged from 1.5-3 ΩM were filled with normal HEPES-buffered solution containing 150 mM NaCl, 10 mM HEPES, 10 mM glucose, 2.5 mM CaCl2, 1.3 mM MgCl2, and 3.5 mM KCl. Pipettes were placed in contact with the GnRH neurons using an MP-285 micromanipulator (Sutter Instruments). Seal resistances ranged from 8 MΩ and either remained stable or increased during recording up to as high as 50 MΩ. Current traces were obtained using an EPC-8 amplifier (HEKA) with the PulseControl XOP (Instrutech) running in Igor Pro (Wavemetrics) on the G4 Macintosh computer (Apple Computer) to acquire data. A voltage-clamp mode with a pipette holding potential of 0 mV, filtering at 10 kHz, digitized with an ITC-18 acquisition interface (Instrutech) was used for the recordings.
Different doses (1 nM, 10 nM, 100 nM) of peptide 234 were used to examine its antagonistic action on kisspeptin-10 activation of gpr-54. Positive control cells were recorded for a 10-min stable baseline, and then treated with kisspeptin-10 for 5 min, followed by a 15-min washout. Experimental cells were recorded for a 5-min stable baseline in NS, followed by 10 min in peptide 234 (1, 10 or 100 nM), then 5 min in kisspeptin-10 plus the same dose of antagonist, followed by a wash in NS. […]

Assay [1] deals with HUVECs (Human Umbilical Vein Endothelial Cells). Kind of assay: Cell migration (wound healing) assay in HUVECs. The assay is classed as cell-based. As to the method:
Human Umbilical Vein Endothelial Cells (HUVECs) isolated from neonatal umbilical cord were used as they endogenously express gpr-54, which is though to be involved in cell migration in the placenta. Chinese hamster ovary (CHO) cells which stably express the human gpr-54 receptor were used as a model cell line for wound healing assays. […] Complete media was added along with 1 nM Kisspeptin-10 for HUVECs and 100 nM Kisspeptin-10 for CHO cells, the optimal concentrations to inhibit cell migration (wound healing) in each cell type, in the presence and absence of antagonist 233, 234, 273 and 276 for HUVECs and 234 for CHOs. […] Cells were photographed on the axiovert 2000 at 20× magnification in phase contrast (Hori et al., 2001. Metastin suppresses the motility and growth of CHO cells transfected with its receptor. Biochem Biophys Res Commun 286, 958-963; Stafford et al., 2002, Identification and characterization of mouse metastasis-suppressor KiSS1 and its G-protein-coupled receptor. Cancer Res 62, 5399-5404).

For `CC(C)C[C@H](NC(=O)CNC(=O)[C@H](Cc1ccccc1)NC(=O)[C@H](CO)NC(=O)[C@H](CC(N)=O)NC(=O)[C@H](Cc1c[nH]c2ccccc12)NC(=O)[C@H](CC(N)=O)NC(=O)[C@@H](N)Cc1ccc(O)cc1)C(=O)N[C@@H](CCCNC(=N)N)C(=O)N[C@@H](Cc1ccccc1)C(N)=O` [Kiss, reference compound], the “GnRH neuron firing activity” value in the assay with GnRH neurons (1 nM agonist, listed as kisspeptin-10) is recorded as “significantly increased; also recorded: markedly increased”. In addition, the “inhibition of migration in to the wound” value in assay [1] (1 nM) was found to be 50%.

Regarding `CC(=O)N[C@H](C)C(=O)N[C@@H](CC(N)=O)C(=O)N[C@@H](Cc1c[nH]c2ccccc12)C(=O)N[C@@H](CC(N)=O)C(=O)NCC(=O)N[C@@H](Cc1ccccc1)C(=O)NCC(=O)N[C@H](Cc1c[nH]c2ccccc12)C(=O)N[C@@H](CCCNC(=N)N)C(=O)N[C@@H](Cc1ccccc1)C(N)=O` [Peptide 234] (Ac-[dA]NWNGFG[dW]RF-NH2), the “GnRH neuron firing activity, peptide alone” value with GnRH neurons (1 nM, post) is 0.27±0.08 Hz; in the assay with GnRH neurons (1 nM, pre), 0.18±0.12 Hz; with GnRH neurons (10 nM, post), 0.29±0.17 Hz; with GnRH neurons (10 nM, pre) it was 0.34±0.15 Hz; in the assay with GnRH neurons (100 nM, post), 0.62±0.14 Hz; in the assay with GnRH neurons (100 nM, pre), 0.45±0.12 Hz. Moreover, the “effect of peptide alone on GnRH neuron firing activity” value in the assay on GnRH neurons (1, 10, 100 nM) is reported as “no effect”. In addition, the “response of GnRH neuron firing to 1 nM kisspeptin-10 after pretreatment with peptide” value in the assay on GnRH neurons is recorded as “block”; in the assay on GnRH neurons (listed as peptide 234), “significantly reduced; also recorded: blocked”. In addition, the “inhibition of migration by 1 nM Kisspeptin in the presence of peptide” value in assay [1] (22 hrs) is recorded as 10%.
